Measurements: patent US7563774B2, “Combination of FBPase inhibitors and antidiabetic agents useful for the treatment of diabetes” (Metabasis Therapeutics, Inc., priority 2000, dated 2009)

Columns and labels:
[1] = system: streptozotocin-induced diabetic rat; assay: Chronic combination treatment of a fatty acid oxidation inhibitor and an FBPase inhibitor in the streptozotocin-induced diabetic rat (Example JJ); assay type: in vivo; details: etomoxir 3-300 mg/kg s.c., Compound J 0.2% w/w food admixture, 2-6 weeks
Procedure: Male Sprague-Dawley rats (Charles Rivers Laboratories) weighing approximately 120 g at the beginning of the study are housed under standard vivarium conditions and fed standard chow (Purina 5001). Rats are rendered diabetic by injection of 55 mg/kg body weight of streptozotocin (STZ) in citrate buffer, pH 4.7. […] Drug treatment is continued for 2-6 weeks. Blood glucose levels are monitored at regular intervals during the treatment period. At the end of the study, rats are anesthetized and instrumented with jugular vein and carotid artery catheters. Hepatic glucose production is measured using a primed constant infusion of (^3H)-6-glucose. Blood samples are taken after two hours, and the specific activity of glucose measured by […]. Hepatic glucose production rater are calculated by standard methods.

Db/db or ob/ob mice = assay: Acute combination treatment of a glycogen phosphorylase inhibitor and an FBPase inhibitor in db/db or ob/ob mice (Example FF); assay type: in vivo, mouse; details: 0.5 to 300 mg/kg p.o.
Procedure: Db/db or ob/ob mice are purchased at 5 weeks of age from Jackson Laboratories (Bar Harbor, Me.). The mice are maintained under standard vivarium conditions (24-26° C., 12-hour light cycle, 12-hour dark cycle) and receive standard chow and water ad libitum. At more than 10 weeks of age, animals are divided into 4 groups (n=5 to 7/group). […] Food is made available after treatment. Blood glucose levels in tail vein samples are measured by means of standard manual or automated methods.

[2] = system: streptozotocin diabetic Sprague Dawley rats; assay: Acute combination treatment of an FBPase inhibitor and an amylin agonist in streptozotocin diabetic rats (Example HH); assay type: in vivo, rat; details: pramlintide 10 micrograms i.v., Compound J 300 mg/kg p.o.
Procedure: Animals are then gavaged with 1 mL 50% glucose, and allowed ad libitum access to food. Blood glucose is collected from the tail vein at 0, 30, 60, 120, 180, and 240 minutes following glucose administration.

SMILES: CCOC(=O)[C@@]1(CCCCCCOc2ccc(Cl)cc2)CO1 [etomoxir, reference compound]
- Blood Glucose [1]: lowered significantly

SMILES: CN(C)C(=O)[C@H](O)[C@H](Cc1ccccc1)NC(=O)c1cc2cc(Cl)ccc2[nH]1 [CP-91149, reference compound]
- blood glucose lowering (Db/db or ob/ob mice): significantly lower blood glucose relative to control values

SMILES: CC[C@H](C)[C@H](NC(=O)[C@@H]1CCCN1C(=O)CNC(=O)[C@H](Cc1ccccc1)NC(=O)[C@H](CC(N)=O)NC(=O)[C@H](CC(N)=O)NC(=O)[C@H](CO)NC(=O)[C@H](CO)NC(=O)[C@H](Cc1c[nH]cn1)NC(=O)[C@@H](NC(=O)[C@H](CC(C)C)NC(=O)[C@H](Cc1ccccc1)NC(=O)[C@H](CC(N)=O)NC(=O)[C@H](C)NC(=O)[C@H](CC(C)C)NC(=O)[C@H](CCCNC(=N)N)NC(=O)[C@H](CCC(N)=O)NC(=O)[C@@H](NC(=O)[C@H](C)NC(=O)[C@@H]1CSSC[C@H](NC(=O)[C@@H](N)CCCCN)C(=O)N[C@@H](CC(N)=O)C(=O)N[C@@H]([C@@H](C)O)C(=O)N[C@@H](C)C(=O)N[C@@H]([C@@H](C)O)C(=O)N1)[C@@H](C)O)C(C)C)C(=O)N[C@@H](CC(C)C)C(=O)N1CCC[C@H]1C(=O)N1CCC[C@H]1C(=O)N[C@H](C(=O)N[C@@H](CC(N)=O)C(=O)N[C@H](C(=O)NCC(=O)N[C@@H](CO)C(=O)N[C@@H](CC(N)=O)C(=O)N[C@H](C(=O)N[C@@H](Cc1ccc(O)cc1)C(N)=O)[C@@H](C)O)C(C)C)[C@@H](C)O [pramlintide, reference compound]
- postprandial glucose excursion [2]: attenuated the postprandial glucose excursion
